Results from patent US8192962B2, “Processes for detecting toxic substances” (Daikin Industries, Ltd., priority 2001, dated 2012).

System: Stress protein genes
Test: DNA chip mRNA expression in yeast, stress protein genes (Table 6)
Type: cell-based, Saccharomyces cerevisiae S288C
Outline: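 Untreated cultures served as reference for log-phase S288C yeast given a growth-inhibiting, non-lethal toxicant dose for 2 h at 25° C. in YPD. Gene expression was measured on a whole-genome DNA chip from Cy3/Cy5-labeled cDNA.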

Question: Which results are given for `CCCCCCCCCCCCOS(=O)(=O)[O-].[Na+]` [(18), sodium lauryl sulfate]?
Answer: The level of expressed mRNA in the presence of chemical substance/The level of expressed mRNA in the absence of chemical substance (yeast gene YAL005C): 0.5; The level of expressed mRNA in the presence of chemical substance/The level of expressed mRNA in the absence of chemical substance (yeast gene YAL015C): 1.2; The level of expressed mRNA in the presence of chemical substance/The level of expressed mRNA in the absence of chemical substance (yeast gene YBL075C): 0.7; The level of expressed mRNA in the presence of chemical substance/The level of expressed mRNA in the absence of chemical substance (yeast gene YBL093C): 1.3; The level of expressed mRNA in the presence of chemical substance/The level of expressed mRNA in the absence of chemical substance (yeast gene YBR044C): 1.3; The level of expressed mRNA in the presence of chemical substance/The level of expressed mRNA in the absence of chemical substance (yeast gene YBR054W): 0.7; The level of expressed mRNA in the presence of chemical substance/The level of expressed mRNA in the absence of chemical substance (yeast gene YBR067C): 0.4; The level of expressed mRNA in the presence of chemical substance/The level of expressed mRNA in the absence of chemical substance (yeast gene YBR072W): 2.2; The level of expressed mRNA in the presence of chemical substance/The level of expressed mRNA in the absence of chemical substance (yeast gene YBR126C): 1.3; The level of expressed mRNA in the presence of chemical substance/The level of expressed mRNA in the absence of chemical substance (yeast gene YBR169C): 1.6; The level of expressed mRNA in the presence of chemical substance/The level of expressed mRNA in the absence of chemical substance (yeast gene YCL035C): 4.2; The level of expressed mRNA in the presence of chemical substance/The level of expressed mRNA in the absence of chemical substance (yeast gene YCR021C): 0.8; The level of expressed mRNA in the presence of chemical substance/The level of expressed mRNA in the absence of chemical substance (yeast gene YCR060W): 1.7; The level of expressed mRNA in the presence of chemical substance/The level of expressed mRNA in the absence of chemical substance (yeast gene YCR083W): 1.3; The level of expressed mRNA in the presence of chemical substance/The level of expressed mRNA in the absence of chemical substance (yeast gene YDL022W): 1.4; The level of expressed mRNA in the presence of chemical substance/The level of expressed mRNA in the absence of chemical substance (yeast gene YDL025C): 1.4; The level of expressed mRNA in the presence of chemical substance/The level of expressed mRNA in the absence of chemical substance (yeast gene YDR033W): 1.0; The level of expressed mRNA in the presence of chemical substance/The level of expressed mRNA in the absence of chemical substance (yeast gene YDR077W): 1.1; The level of expressed mRNA in the presence of chemical substance/The level of expressed mRNA in the absence of chemical substance (yeast gene YDR098C): 1.2; The level of expressed mRNA in the presence of chemical substance/The level of expressed mRNA in the absence of chemical substance (yeast gene YDR155C): 2.5; The level of expressed mRNA in the presence of chemical substance/The level of expressed mRNA in the absence of chemical substance (yeast gene YDR258C): 1.3; The level of expressed mRNA in the presence of chemical substance/The level of expressed mRNA in the absence of chemical substance (yeast gene YDR293C): 1.3; The level of expressed mRNA in the presence of chemical substance/The level of expressed mRNA in the absence of chemical substance (yeast gene YDR436W): 1.2; The level of expressed mRNA in the presence of chemical substance/The level of expressed mRNA in the absence of chemical substance (yeast gene YDR513W): 3.2; The level of expressed mRNA in the presence of chemical substance/The level of expressed mRNA in the absence of chemical substance (yeast gene YDR519W): 2.4; The level of expressed mRNA in the presence of chemical substance/The level of expressed mRNA in the absence of chemical substance (yeast gene YEL030W): 0.6; The level of expressed mRNA in the presence of chemical substance/The level of expressed mRNA in the absence of chemical substance (yeast gene YEL039C): 1.1; The level of expressed mRNA in the presence of chemical substance/The level of expressed mRNA in the absence of chemical substance (yeast gene YER042W): 1.1; The level of expressed mRNA in the presence of chemical substance/The level of expressed mRNA in the absence of chemical substance (yeast gene YER057C): 1.8; The level of expressed mRNA in the presence of chemical substance/The level of expressed mRNA in the absence of chemical substance (yeast gene YER103W): 0.6; The level of expressed mRNA in the presence of chemical substance/The level of expressed mRNA in the absence of chemical substance (yeast gene YER125W): 1.0; The level of expressed mRNA in the presence of chemical substance/The level of expressed mRNA in the absence of chemical substance (yeast gene YFL014W): 8.8; The level of expressed mRNA in the presence of chemical substance/The level of expressed mRNA in the absence of chemical substance (yeast gene YFL016C): 0.9; The level of expressed mRNA in the presence of chemical substance/The level of expressed mRNA in the absence of chemical substance (yeast gene YFL020C): 0.9; The level of expressed mRNA in the presence of chemical substance/The level of expressed mRNA in the absence of chemical substance (yeast gene YFR052W): 1.9; The level of expressed mRNA in the presence of chemical substance/The level of expressed mRNA in the absence of chemical substance (yeast gene YGL073W): 1.2; The level of expressed mRNA in the presence of chemical substance/The level of expressed mRNA in the absence of chemical substance (yeast gene YGL115W): 1.2; The level of expressed mRNA in the presence of chemical substance/The level of expressed mRNA in the absence of chemical substance (yeast gene YGL181W): 1.3; The level of expressed mRNA in the presence of chemical substance/The level of expressed mRNA in the absence of chemical substance (yeast gene YGR088W): 2.0; The level of expressed mRNA in the presence of chemical substance/The level of expressed mRNA in the absence of chemical substance (yeast gene YHL028W): 2.5; The level of expressed mRNA in the presence of chemical substance/The level of expressed mRNA in the absence of chemical substance (yeast gene YHL046C): 0.9; The level of expressed mRNA in the presence of chemical substance/The level of expressed mRNA in the absence of chemical substance (yeast gene YHR030C): 1.8; The level of expressed mRNA in the presence of chemical substance/The level of expressed mRNA in the absence of chemical substance (yeast gene YHR057C): 1.3; The level of expressed mRNA in the presence of chemical substance/The level of expressed mRNA in the absence of chemical substance (yeast gene YHR104W): 1.9; The level of expressed mRNA in the presence of chemical substance/The level of expressed mRNA in the absence of chemical substance (yeast gene YIL011W): 0.8; The level of expressed mRNA in the presence of chemical substance/The level of expressed mRNA in the absence of chemical substance (yeast gene YIL033C): 1.2; The level of expressed mRNA in the presence of chemical substance/The level of expressed mRNA in the absence of chemical substance (yeast gene YIR037W): 2.9; The level of expressed mRNA in the presence of chemical substance/The level of expressed mRNA in the absence of chemical substance (yeast gene YIR038C): 2.0; The level of expressed mRNA in the presence of chemical substance/The level of expressed mRNA in the absence of chemical substance (yeast gene YJL128C): 1.0; The level of expressed mRNA in the presence of chemical substance/The level of expressed mRNA in the absence of chemical substance (yeast gene YJL158C): 1.4; The level of expressed mRNA in the presence of chemical substance/The level of expressed mRNA in the absence of chemical substance (yeast gene YJL159W): 0.9; The level of expressed mRNA in the presence of chemical substance/The level of expressed mRNA in the absence of chemical substance (yeast gene YJL165C): 1.8; The level of expressed mRNA in the presence of chemical substance/The level of expressed mRNA in the absence of chemical substance (yeast gene YJR045C): 0.9; The level of expressed mRNA in the presence of chemical substance/The level of expressed mRNA in the absence of chemical substance (yeast gene YJR090C): 1.0; The level of expressed mRNA in the presence of chemical substance/The level of expressed mRNA in the absence of chemical substance (yeast gene YKL161C): 1.9; The level of expressed mRNA in the presence of chemical substance/The level of expressed mRNA in the absence of chemical substance (yeast gene YKL163W): 1.0; The level of expressed mRNA in the presence of chemical substance/The level of expressed mRNA in the absence of chemical substance (yeast gene YKL164C): 0.8; The level of expressed mRNA in the presence of chemical substance/The level of expressed mRNA in the absence of chemical substance (yeast gene YKL210W): 1.1; The level of expressed mRNA in the presence of chemical substance/The level of expressed mRNA in the absence of chemical substance (yeast gene YKR053C): 2.4; The level of expressed mRNA in the presence of chemical substance/The level of expressed mRNA in the absence of chemical substance (yeast gene YLL024C): 0.6; The level of expressed mRNA in the presence of chemical substance/The level of expressed mRNA in the absence of chemical substance (yeast gene YLL026W): 2.5; The level of expressed mRNA in the presence of chemical substance/The level of expressed mRNA in the absence of chemical substance (yeast gene YLL039C): 2.1; The level of expressed mRNA in the presence of chemical substance/The level of expressed mRNA in the absence of chemical substance (yeast gene YLL060C): 2.3; The level of expressed mRNA in the presence of chemical substance/The level of expressed mRNA in the absence of chemical substance (yeast gene YLR006C): 1.0; The level of expressed mRNA in the presence of chemical substance/The level of expressed mRNA in the absence of chemical substance (yeast gene YLR109W): 1.2; The level of expressed mRNA in the presence of chemical substance/The level of expressed mRNA in the absence of chemical substance (yeast gene YLR259C): 1.0; The level of expressed mRNA in the presence of chemical substance/The level of expressed mRNA in the absence of chemical substance (yeast gene YML007W): 1.4; The level of expressed mRNA in the presence of chemical substance/The level of expressed mRNA in the absence of chemical substance (yeast gene YML070W): 1.3; The level of expressed mRNA in the presence of chemical substance/The level of expressed mRNA in the absence of chemical substance (yeast gene YMR021C): 3.4; The level of expressed mRNA in the presence of chemical substance/The level of expressed mRNA in the absence of chemical substance (yeast gene YMR173W): 1.8; The level of expressed mRNA in the presence of chemical substance/The level of expressed mRNA in the absence of chemical substance (yeast gene YMR186W): 1.1; The level of expressed mRNA in the presence of chemical substance/The level of expressed mRNA in the absence of chemical substance (yeast gene YNL064C): 0.7; The level of expressed mRNA in the presence of chemical substance/The level of expressed mRNA in the absence of chemical substance (yeast gene YNL160W): 1.0; The level of expressed mRNA in the presence of chemical substance/The level of expressed mRNA in the absence of chemical substance (yeast gene YNL241C): 1.0; The level of expressed mRNA in the presence of chemical substance/The level of expressed mRNA in the absence of chemical substance (yeast gene YNR076W): 0.8; The level of expressed mRNA in the presence of chemical substance/The level of expressed mRNA in the absence of chemical substance (yeast gene YOL064C): 1.3; The level of expressed mRNA in the presence of chemical substance/The level of expressed mRNA in the absence of chemical substance (yeast gene YOL161C): 1.0; The level of expressed mRNA in the presence of chemical substance/The level of expressed mRNA in the absence of chemical substance (yeast gene YOR008C): 1.3; The level of expressed mRNA in the presence of chemical substance/The level of expressed mRNA in the absence of chemical substance (yeast gene YOR009W): 0.8; The level of expressed mRNA in the presence of chemical substance/The level of expressed mRNA in the absence of chemical substance (yeast gene YOR010C): 0.6; The level of expressed mRNA in the presence of chemical substance/The level of expressed mRNA in the absence of chemical substance (yeast gene YOR027W): 0.8; The level of expressed mRNA in the presence of chemical substance/The level of expressed mRNA in the absence of chemical substance (yeast gene YOR208W): 1.6; The level of expressed mRNA in the presence of chemical substance/The level of expressed mRNA in the absence of chemical substance (yeast gene YPL059W): 1.3; The level of expressed mRNA in the presence of chemical substance/The level of expressed mRNA in the absence of chemical substance (yeast gene YPL106C): 0.5; The level of expressed mRNA in the presence of chemical substance/The level of expressed mRNA in the absence of chemical substance (yeast gene YPL140C): 1.4; The level of expressed mRNA in the presence of chemical substance/The level of expressed mRNA in the absence of chemical substance (yeast gene YPL194W): 0.8; The level of expressed mRNA in the presence of chemical substance/The level of expressed mRNA in the absence of chemical substance (yeast gene YPL223C): 1.3; The level of expressed mRNA in the presence of chemical substance/The level of expressed mRNA in the absence of chemical substance (yeast gene YPL240C): 1.0; The level of expressed mRNA in the presence of chemical substance/The level of expressed mRNA in the absence of chemical substance (yeast gene YPR005C): 1.1; The level of expressed mRNA in the presence of chemical substance/The level of expressed mRNA in the absence of chemical substance (yeast gene YPR026W): 1.3
